From patent US8952150B2, “Prostaglandin transporter inhibitors and uses thereof” (Albert Einstein College of Medicine of Yeshiva University, priority 2009, dated 2015)

Target: rat PGT (Rattus norvegicus (Rat), UniProt Q00910)
Assay: [3H]PGE2 uptake inhibition in MDCK cells stably transfected with rat PGT (percent inhibition and IC50)
Assay type: cell-based
Conditions: for Inh (% of Ctl) 0.1 μM: 0.1 μM compound; for Inh (% of Ctl) 0.1 μM / Inh (% of Ctl) 0.5 μM / Inh (% of Ctl) 2.5 μM / Inh (% of Ctl) 5 μM / Inh (% of Ctl) 1 μM / Inh (% of Ctl) 10 μM: inhibition of [3H]PGE2 uptake; for Inh (% of Ctl) 0.5 μM: 0.5 μM compound; for Inh (% of Ctl) 2.5 μM: 2.5 μM compound; for Inh (% of Ctl) 5 μM: 5 μM compound; for IC50: [3H]PGE2 uptake, MDCK cells stably transfected with rat PGT; for Inh (% of Ctl) 1 μM: 1 μM compound; for Inh (% of Ctl) 10 μM: 10 μM compound
Protocol: MDCK cells stably transfected with rat PGT (Endo et al., 2002) were seeded at 15-20% confluence on 24-well plates. The day on which the cells were seeded was considered day 1. PGE2 uptake experiments were conducted on day 4. All of the PGE2 uptake experiments were conducted at room temperature. On day 4, cells were washed twice with Waymouth buffer (135 mM NaCl, 13 mM H-Hepes, 13 mM Na-Hepes, 2.5 mM CaCl2, 1.2 mM MgCl2, 0.8 mM MgSO4, 5 mM KCl, and 28 mM D-glucose). Then 200 μL of Waymouth buffer containing [^3H]PGE2 (purchased from Perkin Elmer) was added to each well. At the designed time, the uptake of [^3H]PGE2 was stopped by aspiration of uptake buffer; this was followed by immediate washing twice with 500 μL of chilled Waymouth buffer. Cells were then lysed with 100 μL lysis buffer containing 0.25% SDS and 0.05 N NaOH. 1.5 mL of scintillation solution was added to each well, and intracellular [^3H]PGE2 was counted by MicroBeta Counter.
For preliminary testing of the compounds, 20 μL of Waymouth buffer containing the compound was added to each well; this was immediately followed by the addition of 180 μL of Waymouth buffer containing [^3H]PGE2. In each well, the total volume of uptake medium was 200 μL. Organic compounds were first dissolved in EtOH and then diluted in Waymouth buffer. The percent inhibition of [^3H]PGE2 uptake by compounds was calculated as [(uptakevehicle−uptakeinhibitor)÷(uptakevehicle)]×100.
IC50 was calculated by fitting an equation of y=m1−m1*(m0/(m2+m0)).

Row | Inh (% of Ctl) 0.1 μM | Inh (% of Ctl) 0.5 μM | Inh (% of Ctl) 2.5 μM | Inh (% of Ctl) 5 μM | IC50 [nM] | Inh (% of Ctl) 1 μM | Inh (% of Ctl) 10 μM | Compound
1 | 55.1 % of Ctl | 71.8 % of Ctl | 83.5 % of Ctl | 90.6 % of Ctl | 710 |  |  | O=C(NCCOCCOCCNc1nc(Nc2ccc(O)cc2)nc(Nc2ccc(C(=O)NCc3cccc(Cl)c3)cc2)n1)c1ccccc1 [compound 87]
2 |  | 19.2 % of Ctl |  | 19.3 % of Ctl |  |  |  | O=C(O)c1ccc(Nc2nc(NCCOCCOCCNC(=O)c3ccccc3)nc(Nc3ccc(O)cc3)n2)cc1 [compound 13]
3 | 28.5 % of Ctl | 59.8 % of Ctl |  |  | 44.8 | 70.4 % of Ctl |  | O=C(NCCOCCOCCNc1nc(Nc2ccc(C(=O)NCc3ccc(F)cc3)cc2)nc(Nc2ccc(O)c(C(=O)O)c2)n1)c1ccccc1 [compound 146]
4 | 4.3 % of Ctl | 12.6 % of Ctl |  |  |  | 19.4 % of Ctl |  | N[C@H](Cc1ccccc1)C(=O)NCCOCCNc1nc(Nc2ccc(O)cc2)nc(Nc2ccc(C(=O)NCc3ccccc3)cc2)n1 [compound 133]
5 | 68.4 % of Ctl | 64.8 % of Ctl | 68.8 % of Ctl | 93.1 % of Ctl |  |  |  | O=C(NCCOCCOCCNc1nc(Nc2ccc(O)cc2)nc(Nc2ccc(C(=O)NCc3ccccc3Cl)cc2)n1)c1ccccc1 [compound 106]
6 |  |  |  |  |  | 1.7 % of Ctl | 12.5 % of Ctl | COC(=O)COCCOCCNc1nc(Nc2ccccc2)nc(Nc2ccc(O)cc2)n1 [compound 49]
7 |  | 0.4 % of Ctl | 16.2 % of Ctl | 80.1 % of Ctl |  |  |  | COc1cc(Nc2nc(NCCOCCOCCNC(=O)c3ccccc3)nc(Nc3ccc(O)cc3)n2)ccc1C(=O)NCc1ccccc1 [compound 81]
8 |  | 10.6 % of Ctl |  | 35.9 % of Ctl |  |  |  | CNC(=O)c1ccc(Nc2nc(NCCOCCOCCNC(=O)c3ccccc3)nc(Nc3ccc(O)cc3)n2)cc1 [compound 14]
9 |  | 9.6 % of Ctl |  | 8.5 % of Ctl |  |  |  | COc1ccc(Nc2nc(NCCOCCOCCNC(=O)c3ccccc3)nc(Nc3ccccc3)n2)cc1 [compound 1]
10 | 13.2 % of Ctl | 28.4 % of Ctl |  |  |  | 49.6 % of Ctl |  | O=C(NCCOCCNc1nc(Nc2ccc(O)cc2)nc(Nc2ccc(C(=O)NCc3ccccc3)cc2)n1)c1ccncc1 [compound 135]
11 |  | 22.0 % of Ctl |  | 55.6 % of Ctl | 6570 |  |  | COC(=O)c1ccc(Nc2nc(NCCOCCOCCNC(=O)c3ccccc3)nc(Nc3ccc(O)cc3)n2)cc1 [compound 17]
12 | 8.1 % of Ctl | 36.7 % of Ctl |  |  |  |  |  | COC(=O)c1ccc(CNc2nc(NCCOCCOCCNC(=O)c3ccccc3)nc(Nc3ccc(C(=O)NCc4ccccc4)cc3)n2)cc1 [compound 117]
13 | 41.1 % of Ctl | 56.4 % of Ctl | 57.6 % of Ctl | 86.0 % of Ctl |  |  |  | O=C(NCCOCCOCCNc1nc(Nc2ccc(O)cc2)nc(Nc2ccc(C(=O)NCc3ccc(Cl)cc3Cl)cc2)n1)c1ccccc1 [compound 100]
14 |  | 36.0 % of Ctl | 66.7 % of Ctl | 76.1 % of Ctl |  |  |  | O=C(NCCOCCOCCNc1nc(Nc2ccc(O)cc2)nc(Nc2ccc(C(=O)NCc3ccc4[nH]ccc4c3)cc2)n1)c1ccccc1 [compound 94]
15 |  | 11.8 % of Ctl |  | 44.8 % of Ctl | 9770 |  |  | CC(C)(C)NC(=O)c1ccc(Nc2nc(NCCOCCOCCNC(=O)c3ccccc3)nc(Nc3ccc(O)cc3)n2)cc1 [compound 16]
16 | 15.0 % of Ctl | 22.1 % of Ctl |  |  |  | 32.4 % of Ctl |  | N[C@@H](C(=O)NCCOCCNc1nc(Nc2ccc(O)cc2)nc(Nc2ccc(C(=O)NCc3ccccc3)cc2)n1)c1ccccc1 [compound 132]
17 |  |  |  |  |  | 20.4 % of Ctl | 75.6 % of Ctl | O=C(NCCOCCOCCNc1nc(Nc2ccccc2)nc(Nc2ccc(O)cc2)n1)c1cc(F)cc(F)c1 [compound 35]
18 | 50.0 % of Ctl | 70.7 % of Ctl | 81.4 % of Ctl | 86.4 % of Ctl | 870 |  |  | O=C(NCCOCCOCCNc1nc(Nc2ccc(O)cc2)nc(Nc2ccc(C(=O)NCc3ccccc3-c3ccccc3)cc2)n1)c1ccccc1 [compound 86]

Row | Inh (% of Ctl) 0.1 μM | Inh (% of Ctl) 0.5 μM | Inh (% of Ctl) 2.5 μM | Inh (% of Ctl) 5 μM | IC50 [nM] | Inh (% of Ctl) 1 μM | Inh (% of Ctl) 10 μM | Compound
19 |  |  |  |  |  | 16.3 % of Ctl | 46.9 % of Ctl | O=C(NCCOCCOCCNc1nc(Nc2ccccc2)nc(Nc2ccc(O)cc2)n1)c1ccc(-c2ccccc2)cc1 [compound 40]
20 |  |  |  |  |  | 9.3 % of Ctl | 15.1 % of Ctl | COC(=O)CCCCCCNc1nc(Nc2ccccc2)nc(Nc2ccc(O)cc2)n1 [compound 50]
21 |  |  |  |  |  | 25.8 % of Ctl | 81 % of Ctl | O=C(NCCOCCOCCNc1nc(Nc2ccccc2)nc(Nc2ccc(O)cc2)n1)c1cccc(F)c1 [compound 34]
22 | 24.0 % of Ctl | 56.3 % of Ctl |  |  |  | 70.0 % of Ctl |  | O=C(NCCOCCOCCNc1nc(Nc2ccc(O)cc2)nc(Nc2ccc(C(=O)NCc3cccc(F)c3F)cc2)n1)c1ccccc1 [compound 126]
23 |  |  |  |  |  | 30.3 % of Ctl | 81.1 % of Ctl | O=C(NCCOCCOCCNc1nc(Nc2ccccc2)nc(Nc2ccc(O)cc2)n1)c1cccc(Br)c1 [compound 36]
24 |  | 15.0 % of Ctl |  | 70.8 % of Ctl |  |  |  | CN(Cc1ccccc1)C(=O)c1ccc(Nc2nc(NCCOCCOCCNC(=O)c3ccccc3)nc(Nc3ccc(O)cc3)n2)cc1 [compound 68]
25 |  | 41.9 % of Ctl | 65.7 % of Ctl | 88.0 % of Ctl |  |  |  | Cc1ccc(CNC(=O)c2ccc(Nc3nc(NCCOCCOCCNC(=O)c4ccccc4)nc(Nc4ccc(O)cc4)n3)cc2)cc1 [compound 102]
26 |  | 38.3 % of Ctl | 62.2 % of Ctl | 83.7 % of Ctl |  |  |  | O=C(NCCOCCOCCNc1nc(Nc2ccc(O)cc2)nc(Nc2ccc(C(=O)Nc3ccccc3)cc2)n1)c1ccccc1 [compound 103]
27 |  | 1.7 % of Ctl |  | 9.2 % of Ctl |  |  |  | O=C(NCCOCCOCCNc1nc(Nc2ccc(O)cc2)nc(Nc2ccc(N3CCOCC3)cc2)n1)c1ccccc1 [compound 24]
28 |  | 6.6 % of Ctl |  | 9.6 % of Ctl |  |  |  | CN(C)c1nc(NCCOCCOCCNC(=O)c2ccccc2)nc(Nc2ccc(OCc3ccccc3)cc2)n1 [compound 5]
29 |  | 10.9 % of Ctl |  | 64.4 % of Ctl |  |  |  | CC(C)(NC(=O)c1ccc(Nc2nc(NCCOCCOCCNC(=O)c3ccccc3)nc(Nc3ccc(O)cc3)n2)cc1)c1ccccc1 [compound 66]
30 |  | 14.4 % of Ctl |  | 38.4 % of Ctl |  |  |  | COc1ccc(Nc2nc(NCCOCCOCCNC(=O)c3ccccc3)nc(Nc3ccc(O)cc3)n2)cc1 [compound 23]
31 |  | 5.4 % of Ctl | 29.2 % of Ctl | 54.9 % of Ctl |  |  |  | O=C(NCCOCCOCCNc1nc(Nc2ccc(O)cc2)nc(Nc2ccc(C(=O)N[C@@H](C(=O)O)c3ccccc3)cc2)n1)c1ccccc1 [compound 79]
32 | 67.9 % of Ctl | 64.6 % of Ctl | 81 % of Ctl | 92.45 % of Ctl | 47.5 |  |  | O=C(NCCOCCOCCNc1nc(Nc2ccc(O)cc2)nc(Nc2ccc(C(=O)NCc3cccc(F)c3)cc2)n1)c1ccccc1 [compound 105]
33 |  | 41.3 % of Ctl |  | 75.0 % of Ctl |  |  |  | COCCOCCOCCNC(=O)c1ccc(Nc2nc(NCCOCCOCCNC(=O)c3ccccc3)nc(Nc3ccc(O)cc3)n2)cc1 [compound 19]
34 | 60.8 % of Ctl | 72.1 % of Ctl | 84.0 % of Ctl | 88.0 % of Ctl | 620 |  |  | O=C(NCCOCCOCCNc1nc(Nc2ccc(O)cc2)nc(Nc2ccc(C(=O)NCc3ccc(Cl)cc3)cc2)n1)c1ccccc1 [compound 91]
35 |  |  |  |  |  | 42.9 % of Ctl | 86.2 % of Ctl | O=C(NCCOCCOCCNc1nc(Nc2ccccc2)nc(Nc2ccc(O)cc2)n1)c1cccs1 [compound 39]
36 | 8.9 % of Ctl | 45.1 % of Ctl |  |  |  | 65.6 % of Ctl |  | O=C(NCCOCCOCCNc1nc(Nc2ccc(O)cc2)nc(Nc2ccc(C(=O)NCc3ccc(F)c(F)c3)cc2)n1)c1ccccc1 [compound 129]
